Assays:
[1] = test system: Compound 48/80-induced scratching; assay: mouse scratch model: antagonism of Compound 48/80-induced scratching; type: in vivo, male Swiss albino mice; conditions: s.c.; for Mean % Inhibition of Scratching: Compound 48/80 challenge, scratching counted for 30 min; for antagonism of Compound 48/80-induced scratching (in words): mice
Description: Testing was performed in a mouse scratch model under blind conditions.
Groups of 8-10 male Swiss albino mice (Hilltop Lab Animals, Inc., Scottsdale, Pa.), weighing […], were used in the testing. They were housed under controlled temperature of 23-25° C. Food and water were freely available. Before the experiments, the mice were weighed, put into individual boxes and allowed to acclimate for 30 min.
Vehicle used to dissolve the test compounds: 20% w/w cremophor EL.
100 μl of the vehicle (3-5 doses, n=8-10) was injected s.c. into the back of the neck of mice 20 min. before challenging them with 100 μl of Compound 48/80 (2 mg/ml; […]) injected s.c. into the back of the neck.
To each mouse of a group of 8-10 mice previously subjected to the standard challenge various doses of the compounds, to be tested for anti-pruritic activity, were administered s.c. into the back of the neck.
For each group of 8-10 mice, the mean values for scratching were normalized to relative % antagonism of scratching and then plotted vs. dose of test compounds. Interval estimates of mean A50 were determined by nonlinear regression analysis (Kaleida Graph) and mean % inhibition of scratching was calculated.

[2] = i.v. administration; cited from earlier work

Row | SMILES | Mean % Inhibition of Scratching ([1]; dose 2.5 mg/kg) | Mean % Inhibition of Scratching ([1]; dose 5.0 mg/kg) | Mean % Inhibition of Scratching ([1]; dose 10.0 mg/kg) | antagonism of Compound 48/80-induced scratching (in words) [1] | Mean % Inhibition of Scratching ([1]; dose 1.0 mg/kg) | generalized itching, share of patients [2]
1 | Cl.O=C(O)C1(c2ccccc2)CCN(CCC(c2ccccc2)(c2ccccc2)c2ccccn2)CC1 [(1), 1-[3,3-diphenyl-3-(2-pyridyl)propyl]-4-phenyl-4-piperidinecarboxylic acid hydrochloride] | 32% | 65% | 83% | antagonized Compound 48/80-induced scratching in a dose-related manner | – | –
2 | OC1(Cc2ccc(Cl)cc2)CCN(CCC(c2ccccc2)(c2ccccc2)c2ccccc2)CC1 [(2), 1-(3,3,3-triphenylpropyl)-4-hydroxy-4-p-chlorobenzylpiperidine] | 68% | 94% | – | antagonized Compound 48/80-induced scratching in a dose-related manner | 35% | –
3 | CN(C)C(=O)C(CCN1CCC(O)(c2ccc(Cl)cc2)CC1)(c1ccccc1)c1ccccc1.Cl [(3), reference compound] | – | – | – | antagonized Compound 48/80-induced scratching in a dose-related manner | – | –
4 | CN1CC[C@]23c4c5ccc(O)c4O[C@H]2[C@@H](O)C=C[C@H]3[C@H]1C5 [morphine] | – | – | – | – | – | about 1%

Source: patent US6353004B1, “Peripherally acting anti-pruritic opiates” (Adolor Coporation, priority 1997, dated 2002)
